Read-outs that look alike come from different tables or passages of the source.

For assay [1], the target named is T1, α4β2-containing receptor subtype (Rattus norvegicus, UniProt P09483+P12390).
T1 construct: Striata from two rats were dissected, pooled, and homogenized; from tissue; host or cells: rat striatal membranes
The assay can be described thus: [3H]-NIC binding assay, rat striatal membranes. The following applies: for Specific binding of [3H]-NIC in the presence of compound: 3 nM [3H]-NIC, mean ± S.E.M of 3 experiments.

Assay [2] deals with T1, α4β2-containing receptor subtype. The experiment in a line: [3H]-NIC binding assay, rat striatal membranes. The following applies: compared with NONI, NDNI, DHβE. Here is the method: Striata from two rats were dissected, pooled, and homogenized with a Tekmar polytron in 10 vol of ice-cold modified Krebs-HEPES buffer (20 mM HEPES, 118 mM NaCl, 4.8 mM KCl, 2.5 mM CaCl2, 1.2 mM MgSO4, adjusted to pH 7.5). The homogenates were incubated at 37° C. for 5 minutes and centrifuged at 15,000 g for 20 minutes. The pellet was resuspended in 10 volumes of ice-cold MilliQ water, incubated for 5 minutes at 37° C., and centrifuged at 15,000 g for 20 minutes. The second pellet was then resuspended in 10 volumes of fresh ice-cold 10% Krebs-HEPES buffer, incubated at 37° C., and centrifuged at 15,000 g for 20 minutes. The latter sequence of resuspension, incubation, and centrifugation was repeated. The pellet was frozen under fresh 10% Krebs-HEPES buffer and stored at −40° C. until assayed. Upon assay, the pellet was resuspended in the Krebs-HEPES buffer, incubated at 37° C. for 5 minutes, and centrifuged at 15,000 g for 20 minutes. The final pellet was resuspended in 3.6 ml ice-cold MilliQ water which provided for approximately 200 μg protein per 100 μl aliquot. Competition assays were performed in triplicate in a final volume of 200 μl Krebs-HEPES buffer containing […] Tris buffer (pH 7.5 at 4° C.). Reactions were initiated by addition of 100 μl of membrane suspension to […] [^3H]-NIC (50 μl). and one of at least nine concentrations of analog (50 μl). After a 90 minutes incubation at […], reactions were terminated by dilution of the samples with 3 ml of ice-cold Krebs-HEPES buffer followed immediately by filtration through Whatman GF/B. glass fiber filters (presoaked in 0.5% polyethyleneimine) using a Brandel Cell Harvester. Filters were rinsed three times with. 3 ml of ice-cold Krebs-HEPES buffer, transferred to scintillation vials, and 5 ml scintillation cocktail (Research Products International Corp., Mt. Prospect, Ill.) added. Nonspecific binding determined in triplicate was defined as binding in the presence of 10 μM NIC. Binding parameters were determined using the weighted, least squares regression.
The conformationally restricted nicotine analogs were evaluated for their ability to displace [^3H]-NIC binding from rat striatal membranes.

Assay [3] deals with T2, α7-type neuronal nicotinic acetylcholine receptors (Rattus norvegicus, UniProt Q05941).
T2 construct: The brain tissue was homogenized with a Tekmar Polytron; from tissue; host or cells: male Sprague-Dawley rat brain membranes (whole brain without cortex, striatum and cerebellum)
T2 sequence (Q05941 23-502): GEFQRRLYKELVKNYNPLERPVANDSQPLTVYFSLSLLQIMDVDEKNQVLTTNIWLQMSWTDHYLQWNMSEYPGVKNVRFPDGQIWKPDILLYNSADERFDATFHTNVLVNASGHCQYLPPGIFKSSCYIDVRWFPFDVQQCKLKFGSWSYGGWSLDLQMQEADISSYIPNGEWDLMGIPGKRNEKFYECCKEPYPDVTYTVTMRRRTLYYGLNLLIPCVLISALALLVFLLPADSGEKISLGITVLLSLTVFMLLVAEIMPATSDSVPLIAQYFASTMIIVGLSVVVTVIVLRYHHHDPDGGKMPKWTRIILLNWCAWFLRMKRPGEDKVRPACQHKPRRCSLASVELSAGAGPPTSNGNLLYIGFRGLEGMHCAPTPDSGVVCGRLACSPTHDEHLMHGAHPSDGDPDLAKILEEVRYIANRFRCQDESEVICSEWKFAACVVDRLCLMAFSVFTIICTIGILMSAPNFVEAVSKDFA
The assay can be described thus: [3H]-MLA binding assay, rat brain membranes. To be noted: for remaining activity at 10 µM: compound 10 μM, 2.5 nM [3H]-MLA, whole brain binding relative to control.

T1 sequence (P09483 31-630): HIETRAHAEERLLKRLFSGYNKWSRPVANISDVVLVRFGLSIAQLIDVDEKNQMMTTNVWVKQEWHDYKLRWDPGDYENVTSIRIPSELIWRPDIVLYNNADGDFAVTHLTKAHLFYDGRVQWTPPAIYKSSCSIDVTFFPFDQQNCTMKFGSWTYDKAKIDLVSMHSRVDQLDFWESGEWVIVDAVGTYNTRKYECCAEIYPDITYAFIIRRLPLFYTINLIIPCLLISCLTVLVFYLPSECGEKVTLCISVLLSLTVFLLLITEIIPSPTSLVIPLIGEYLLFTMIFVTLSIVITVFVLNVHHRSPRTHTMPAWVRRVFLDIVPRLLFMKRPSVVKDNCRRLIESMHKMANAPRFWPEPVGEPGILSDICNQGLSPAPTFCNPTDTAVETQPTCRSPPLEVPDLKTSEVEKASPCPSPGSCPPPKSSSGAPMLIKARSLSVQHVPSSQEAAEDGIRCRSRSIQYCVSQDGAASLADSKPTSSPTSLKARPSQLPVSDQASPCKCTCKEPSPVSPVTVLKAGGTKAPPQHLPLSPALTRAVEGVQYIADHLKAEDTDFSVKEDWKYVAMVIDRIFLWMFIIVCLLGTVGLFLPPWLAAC
T1 sequence (P12390 25-500): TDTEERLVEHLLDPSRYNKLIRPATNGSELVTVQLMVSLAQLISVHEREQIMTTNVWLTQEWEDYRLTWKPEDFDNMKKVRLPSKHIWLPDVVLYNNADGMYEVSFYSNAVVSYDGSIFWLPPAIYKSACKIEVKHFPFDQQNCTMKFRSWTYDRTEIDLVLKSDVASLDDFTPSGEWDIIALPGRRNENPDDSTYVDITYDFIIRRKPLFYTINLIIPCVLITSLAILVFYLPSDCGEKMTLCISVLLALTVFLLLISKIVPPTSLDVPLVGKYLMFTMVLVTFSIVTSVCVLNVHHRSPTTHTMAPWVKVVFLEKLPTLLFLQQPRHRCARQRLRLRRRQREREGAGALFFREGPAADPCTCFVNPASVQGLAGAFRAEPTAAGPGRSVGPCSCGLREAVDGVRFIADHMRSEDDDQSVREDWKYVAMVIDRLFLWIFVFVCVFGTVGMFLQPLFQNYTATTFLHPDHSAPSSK

As for `CCCCCCCCCC[n+]1ccc2c(c1)[C@@H]1[C@H](CC2)CCN1C.[I-]` (relative stereo) [ACD, cis-8-decyl-1-methyl-2,3,3a,4,5,9b-hexahydro-1H-pyrrolo[3,2-h]isoquinolin-8-ium iodide], the “Specific binding of [3H]-NIC in the presence of compound” value (shortened to “Specific binding of [3H]-NIC”) in assay [1] (compound 1 μM) is on record as 50.3 ± 3.7 fmol/mg of protein; in assay [1] (compound 10 μM), 52.1 ± 2.6 fmol/mg of protein; in assay [1] (compound 100 μM), 37.0 ± 1.7 fmol/mg of protein. The “Affinity for the [3H]-NIC binding site (in words)” value (shortened to “Affinity”) in assay [2] is on record as “lost their ability to interact with this binding site”. In addition, the remaining activity at 10 µM in assay [3] worked out at 102%.

With `CCCCCCCCCCCC[n+]1ccc2c(c1)[C@@H]1[C@H](CC2)CCN1C.[I-]` (relative stereo) [ACDD, cis-8-dodecyl-1-methyl-2,3,3a,4,5,9b-hexahydro-1H-pyrrolo[3,2-h]isoquinolin-8-ium iodide], the “Specific binding of [3H]-NIC” value in assay [1] (compound 1 μM) is on record as 49.5 ± 0.7 fmol/mg of protein; in assay [1] (compound 10 μM) it was 49.8 ± 2.9 fmol/mg of protein; in assay [1] (compound 100 μM), 44.5 ± 1.7 fmol/mg of protein. In addition, the remaining activity at 10 µM in assay [3] turned out to be 102%.

As to `CCCCCCCCC[n+]1ccc2c(c1)[C@@H]1[C@H](CC2)CCN1C.[I-]` (relative stereo) [ACN, cis-1-methyl-8-nonyl-2,3,3a,4,5,9b-hexahydro-1H-pyrrolo[3,2-h]isoquinolin-8-ium iodide], the “Specific binding of [3H]-NIC” value in assay [1] (compound 1 μM) is 49.8 ± 3.6 fmol/mg of protein; in assay [1] (compound 10 μM), 48.9 ± 2.9 fmol/mg of protein; in assay [1] (compound 100 μM) it was 30.2 ± 2.2 fmol/mg of protein. For the same compound, the remaining activity at 10 µM in assay [3] was found to be 101%.

Consider `CCCCCCCC[n+]1ccc2c(c1)[C@@H]1[C@H](CC2)CCN1C.[I-]` (relative stereo) [ACO, cis-1-methyl-8-octyl-2,3,3a,4,5,9b-hexahydro-1H-pyrrolo[3,2-h]isoquinolin-8-ium iodide], for which the “Specific binding of [3H]-NIC” value in assay [1] (compound 1 μM) is on record as 44.5 ± 0.4 fmol/mg of protein; in assay [1] (compound 10 μM) it was 42.2 ± 0.5 fmol/mg of protein; in assay [1] (compound 100 μM), 30.2 ± 6.9 fmol/mg of protein. Besides, in assay [2], the “Affinity” value was “much lower affinity for the [^3H]-NIC binding site compared to NONI”. Further, in assay [3], the remaining activity at 10 µM amounted to 91.5%.

For `CCCCCCCCCCC[n+]1ccc2c(c1)[C@@H]1[C@H](CC2)CCN1C.[I-]` (relative stereo) [ACU, cis-1-methyl-8-undecyl-2,3,3a,4,5,9b-hexahydro-1H-pyrrolo[3,2-h]isoquinolin-8-ium iodide], the “Specific binding of [3H]-NIC” value in assay [1] (compound 1 μM) is 51.3 ± 2.0 fmol/mg of protein; in assay [1] (compound 10 μM) it was 49.0 ± 0.3 fmol/mg of protein; in assay [1] (compound 100 μM), 42.7 ± 2.1 fmol/mg of protein. Further, the remaining activity at 10 µM in assay [3] was 100%.

As for `CCCCCCCCCCCC[n+]1cccc2c1CCC1CCN(C)C21` (stereo not drawn) [BCDD, cis-6-dodecyl-1-methyl-2,3,3a,4,5,9b-hexahydro-1H-pyrrolo[2,3-f]isoquinolin-6-ium iodide], the “Specific binding of [3H]-NIC” value is 43.7 ± 4.5 fmol/mg of protein in assay [1] (compound 1 μM), 43.0 ± 4.7 fmol/mg of protein in assay [1] (compound 10 μM) and 34.0 ± 2.1 fmol/mg of protein in assay [1] (compound 100 μM). Also, the remaining activity at 10 µM in assay [3] is 94.2%.

Turning to `CCCCCCCCCC[n+]1cccc2c1CCC1CCN(C)C21` (stereo not shown) [BCD], the entries for the “Specific binding of [3H]-NIC” value in assay [1] (compound 1 μM), in assay [1] (compound 10 μM) and in assay [1] (compound 100 μM) were 54.9 ± 0.7 fmol/mg of protein, 54.4 ± 1.1 fmol/mg of protein and 47.9 ± 2.8 fmol/mg of protein, respectively. Further, the “Affinity” value in assay [2] is reported as “lost their ability to interact with this binding site”. Besides, the remaining activity at 10 µM in assay [3] is 96.2%.

As for `CCCCCCCCC[n+]1cccc2c1CCC1CCN(C)C21` (stereo not drawn) [BCN, cis-1-methyl-6-nonyl-2,3,3a,4,5,9b-hexahydro-1H-pyrrolo[2,3-f]isoquinolin-6-ium iodide], the “Specific binding of [3H]-NIC” value in assay [1] (compound 1 μM) is listed as 49.6 ± 1.2 fmol/mg of protein; in assay [1] (compound 10 μM), 47.7 ± 2.1 fmol/mg of protein; in assay [1] (compound 100 μM) it was 36.2 ± 0.3 fmol/mg of protein. For the same compound, the remaining activity at 10 µM in assay [3] is 94%.

Take `CCCCCCCC[n+]1cccc2c1CCC1CCN(C)C21` (stereo not shown) [BCO]: the “Specific binding of [3H]-NIC” value in assay [1] (compound 1 μM) is listed as 50.5 ± 1.2 fmol/mg of protein; in assay [1] (compound 10 μM), 39.7 ± 1.4 fmol/mg of protein; in assay [1] (compound 100 μM), 13.5 ± 0.5 fmol/mg of protein. In addition, the “Affinity” value in assay [2] was “much lower affinity for the [^3H]-NIC binding site compared to NONI”. Further, the remaining activity at 10 µM in assay [3] came out at 93.6%.

As to `CCCCCCCCCCC[n+]1cccc2c1CCC1CCN(C)C21` (stereo not shown) [BCU], the “Specific binding of [3H]-NIC” value in assay [1] (compound 1 μM) is reported as 56.1 ± 0.6 fmol/mg of protein; in assay [1] (compound 10 μM) it was 53.9 ± 1.2 fmol/mg of protein; in assay [1] (compound 100 μM), 37.3 ± 1.8 fmol/mg of protein. In addition, the remaining activity at 10 µM in assay [3] came out at 92.3%.

As for `CCCCCCCCCC[n+]1cccc([C@@H]2CCCN2C)c1.[I-]` [NDNI, reference compound], the “Affinity” value in assay [1] is given as “high affinity”.

For α-Bungarotoxin [reference compound], the Ki in assay [3] was determined as 28.6 ± 5.4 nM.

For orientation: remaining activity means the signal under treatment as a percentage of the control signal. For orientation: Ki means a measure of affinity in units of concentration, obtained from inhibition or displacement. High values mean a looser hold on the target, low ones a stronger hold on the target.

The record behind these values is patent US6503922B2, “Bridged nicotine compounds for use in the treatment of CNS pathologies” (priority 2000, dated 2003).
